Test results reported in patent US9345691B2, “Beta-lactam compounds for enhancing T cell-mediated immune responses” (STEM CELL MEDICINE LTD., priority 2011, dated 2016).

What was measured:
CD4+ human T cells = assay: Human Autoimmune and Inflammatory Response Gene Array, anti-CD3 stimulated T cells; type: cell-based; conditions: 120 min anti-CD3; for % increase by Amp.: ampicillin 50 μg/ml
Procedure: T cells were purified from the peripheral bloods of healthy human donors (Blood Bank, Sheba Medical center). The whole blood was incubated (20 min, 22° C.) with RosetteSep™ human T cell enrichment mixture (StemCell Technologies, Vancouver, Canada). The remaining unsedimented cells were then loaded onto lymphocyte separation medium (ICN Biomedicals, Irvine, Calif.), isolated by density centrifugation, and washed with PBS. […] In a second round of purification, CD3^+ T cells were labeled for selection with a magnetically coupled mAb against CD4 (Miltenyi Biotec, Auburn, Calif.).
Human CD4 T cells were isolated as described, and incubated in 24 well plates (Nunc), 4×10^6 cells/ml with plate bound anti-human CD3 (OKT3) at 2 μg/ml. The stimulation was performed in RPMI medium supplemented with 0.1% BSA. […] RNA was extracted from samples and used to prepare probes for gene array in accord with the manufacturer's instructions (SuperArray Bioscience, Frederick, Md.). Adequate labeling of the probes was tested before hybridization. Three healthy donors were tested in stimulation with cefuroxime. The membranes were analyzed online with the Image Data Acquisition and Expression Analysis (SuperArray Bioscience).
The Human Autoimmune and Inflammatory Response Gene Array (SuperArray Bioscience corporation, Frederick, Md., USA) was used for analysis of gene expression by the T cells. This array contains 367 genes including cytokines, chemokines and their receptors, transcription factors and signaling proteins. […] Analysis of the results was performed using the GEArray analysis program (www.SuperArray.com). […] To verify the results detected by the gene array study, a panel of six genes was designed and tested by real-time PCR: CCR4, ACVR2, JAK1, STAT4, TLR2 and NFKBIE. The cDNA that was used was prepared from the same RNA used for the gene array experiment.

[1] = test system: encephalitogenic BP10 T-cell line; assay: Adoptive EAE by BP10 line stimulated in vitro with test substance; type: in vivo, rat; conditions: BP10 line stimulated 3 days with MBP in presence of 50 μg/ml; 10^7 cells IP per rat
Source text: The ability of a compound to enhance T cell activity may be determined, for example, using an in vivo assay testing the effect of a given compound on the severity of adoptive (passive) EAE, namely, EAE which is induced by the injection of activated encephalitogenic T cell line to the model animal. In order to test a compound, the encephalitogenic T cells are activated in the presence of the compound prior to injection. An exemplary procedure is described in the Examples section hereinbelow.
Antigen-specific T-cell lines were established from lymph node cells that had been stimulated with myelin basic protein (MBP; 10 μg/ml) for 3 days in stimulation medium as described below. Following stimulation, the T-cell blasts were isolated on Lympho-prep (Nycomed Pharma, Oslo, Norway) and seeded in propagation medium. Propagation medium was identical to stimulation medium without autologous serum, but supplemented with fetal calf serum 10% and T-cell growth factors from the supernatant of Con A stimulated spleen cells 10% (Mor et al. (1990) J Clin Invest, 85, 1594-1598). Animals were injected intra-peritoneally with 10^7 MBP-stimulated T cells, following 6-8 cycles of in vitro stimulations. It is known that MBP-reactive lines undergo a reduction in pathogenicity after 6 or more in vitro stimulations. In some experiments the BP10 line was stimulated with phorbol myristate acetate (PMA; 50 ng/ml) and ionomycin (500 ng/ml) for 3 days in stimulation medium, without antigen-presenting cells.
Active EAE was induced by subcutaneous injection of 25 μg guinea-pig MBP (GpMBP) in complete Freund's adjuvant (CFA). CFA was prepared by adding 4 mg/ml Mycobacterium tuberculosis H37Ra (Difco, Mich.) to incomplete Freund's adjuvant (IFA). Adoptive EAE was transferred by intra-peritoneal injection of guinea-pig MBP-activated cells of the BP10 line as described in Mor et al. (1993) J Clin Invest, 92, 2199-2206. […] Clinical scoring was: +1, paralysis of tail; +1.5, paresis of posterior paws and ataxia; +2, paraplegia; +3, paralysis extending to thoracic spine; +4, a moribund state.
Treatment with cefuroxime in vivo could affect many different host agents involved in EAE or AA as well as influencing the rats' bacterial flora. To test whether the antibiotic might directly modify the behavior of effector T cells, an encephalitogenic T-cell line was stimulated in the presence or absence of cefuroxime in vitro. The weakly encephalitogenic BP10 line was used, and was stimulated for 3 days with MBP in the presence or absence of cefuroxime (50 μg/ml). The activated T cells were then washed to remove the antibiotic, the T cells were injected intra-peritoneally into naïve recipient rats (10^7 per rat), and EAE was scored. The BP10 line at later stimulations was used, when its pathogenic potential is reduced, allowing to detect both suppression and enhancement of disease. […] To rule out antigen presenting cells (APC) as the target of the beta-lactam antibiotic, the encephalitogenic BP10 line was stimulated without APC using PMA (50 ng/ml) and Ionomycin (500 ng/ml) in the presence or absence of cefuroxime.

CC1(C)S[C@@H]2[C@H](NC(=O)[C@H](N)c3ccccc3)C(=O)N2[C@H]1C(=O)O [ampicillin]
number of the 57 cefuroxime-down-regulated genes up-regulated (CD4+ human T cells; 50 μg/ml): 56 genes | % increase by Amp. (CD4+ human T cells; gene ACTB): +196% | % increase by Amp. (CD4+ human T cells; gene ACVR1, A low expression): +53% | % increase by Amp. (CD4+ human T cells; gene ACVR2, A low expression): +85% | % increase by Amp. (CD4+ human T cells; gene CCL5): +25% | % increase by Amp. (CD4+ human T cells; gene CCL11): +107% | % increase by Amp. (CD4+ human T cells; gene CCR4): +31% | % increase by Amp. (CD4+ human T cells; gene CCR6): +83% | % increase by Amp. (CD4+ human T cells; gene CCR7): +43% | % increase by Amp. (CD4+ human T cells; gene CD28): +175% | % increase by Amp. (CD4+ human T cells; gene CD40LG): +67% | % increase by Amp. (CD4+ human T cells; gene CREBBP): +49% | % increase by Amp. (CD4+ human T cells; gene CXCL10): +25% | % increase by Amp. (CD4+ human T cells; gene EGR3): −25% | % increase by Amp. (CD4+ human T cells; gene GFI1): +10% | % increase by Amp. (CD4+ human T cells; gene HRAS, A low expression): −12% | % increase by Amp. (CD4+ human T cells; gene IL1B, A low expression): +64% | % increase by Amp. (CD4+ human T cells; gene IL2RB): +93% | % increase by Amp. (CD4+ human T cells; gene IL2RG, A low expression): +78% | % increase by Amp. (CD4+ human T cells; gene IL9R): No change | % increase by Amp. (CD4+ human T cells; gene IL16, A low expression): +14% | % increase by Amp. (CD4+ human T cells; gene IRAK1): +171% | % increase by Amp. (CD4+ human T cells; gene JAK1): +161% | % increase by Amp. (CD4+ human T cells; gene JUN): +65% | % increase by Amp. (CD4+ human T cells; gene LTA): +48.5% | % increase by Amp. (CD4+ human T cells; gene MAP2K4): +150% | % increase by Amp. (CD4+ human T cells; gene MAP3K1, A low expression): +63% | % increase by Amp. (CD4+ human T cells; gene MAP3K2): +93% | % increase by Amp. (CD4+ human T cells; gene MAP3K7): +124% | % increase by Amp. (CD4+ human T cells; gene MAPK9): +46% | % increase by Amp. (CD4+ human T cells; gene NFKB1): +31% | % increase by Amp. (CD4+ human T cells; gene NFKB2): +195% | % increase by Amp. (CD4+ human T cells; gene NFKBIE): +132% | % increase by Amp. (CD4+ human T cells; gene NFKBIL1): +191% | % increase by Amp. (CD4+ human T cells; gene PAK1): +111% | % increase by Amp. (CD4+ human T cells; gene PIN1): +105% | % increase by Amp. (CD4+ human T cells; gene RANBP5): +108% | % increase by Amp. (CD4+ human T cells; gene REL): +132% | % increase by Amp. (CD4+ human T cells; gene RFX5): +137% | % increase by Amp. (CD4+ human T cells; gene RFXAP): +131% | % increase by Amp. (CD4+ human T cells; gene SDF2): +71% | % increase by Amp. (CD4+ human T cells; gene SELL): +124% | % increase by Amp. (CD4+ human T cells; gene SMAD4): +85% | % increase by Amp. (CD4+ human T cells; gene SMAD7, A low expression): +34% | % increase by Amp. (CD4+ human T cells; gene SP3): +47% | % increase by Amp. (CD4+ human T cells; gene SRF): +58% | % increase by Amp. (CD4+ human T cells; gene STAT1): +85% | % increase by Amp. (CD4+ human T cells; gene STAT4): +11% | % increase by Amp. (CD4+ human T cells; gene STAT6): no change | % increase by Amp. (CD4+ human T cells; gene TGFBR3): +139% | % increase by Amp. (CD4+ human T cells; gene TGIF, A low expression): +72% | % increase by Amp. (CD4+ human T cells; gene TLR2, A low expression): +419% | % increase by Amp. (CD4+ human T cells; gene TNFRSF11A, A low expression): +81% | % increase by Amp. (CD4+ human T cells; gene TNFα): +39% | % increase by Amp. (CD4+ human T cells; gene TRAF5, A low expression): +47% | % increase by Amp. (CD4+ human T cells; gene TRAF6, A low expression): +39% | % increase by Amp. (CD4+ human T cells; gene YY1): +152% | severity of adoptive EAE [1]: did not increase the severity of EAE
